What was measured:
blood-sugar = test: Hypoglycemic activity in alloxan-treated rats (Blood-Sugar-Level, oral); format: in vivo, rat (alloxan-treated adult male); conditions: for Percentage of Blood-Sugar-Level (B.S.L.), 1 hr after / Percentage of Blood-Sugar-Level (B.S.L.), 3 hr after / Percentage of Blood-Sugar-Level (B.S.L.), 5 hr after: alloxan rats, change vs control; for Percentage of Blood-Sugar-Level (B.S.L.), Total: total of 1, 3 and 5 hr percentages
Experimental: Assay and control groups of rats were used, each group consisting of 5 adult male rats weighing 200 to 250 g and showing about 250 to 350 mg/dl-blood as the initial blood-sugar value, after being treated once with 50 mg/kg of alloxan (i.v.) one week before the assay. The assay and control groups were orally administered a 5 % gum arabic suspension with and without the test compound, respectively. Measurement of the absolute blood-sugar value was carried out thrice (i.e. 1 hour after, 3 hours after, and 5 hours after administration) and the values were compared with those of the control group. Blood-sugar values were determined by an assay technique using the marketed enzymatic glucose reagent: Glucostat (Trade Mark of Worthington Biochemical Corporation, Freehold, N.J., U.S.A.).
In effect, the marks + and -correspond to increasing and decreasing
tendency of B.S.L., respectively, after eliminating the difference in
value between the assay and control groups.

in vivo = conditions: mouse, oral, mice, 24 hours observation
Excerpt: For each dose 10 male mice were used, their body-weights ranging from 19 to 21 grams. […] The LD50 means the amount of the test compound being expected to kill just half the number of the animals treated.

Blood Free-Fatty-Acid = Blood Free-Fatty-Acid (B.F.F.A.) lowering activity in fasted rats (oral); format: in vivo, rat (male); conditions: 100 mg/kg p.o.; for B.F.F.A. Level, 1 hr after / B.F.F.A. Level, 3 hr after / B.F.F.A. Level, 5 hr after: fasted rats; for B.F.F.A. Level, Total: total of 1, 3 and 5 hr values
Experimental: Several groups of male rats weighing 200 to 250 g, each group consisting of 5 rats, were used in the test. Assay and control groups were fasted during 24 hours and then orally given 5 % gum arabic suspension with and without the test compound (100 mg/kg p.o.), respectively. All animals tested were decapitated 1 hour after, 3 hours after, or 5 hours after the treatment, and blood samples were drawn for B.F.F.A. value determination. A percentage factor, as B.F.F.A. Level, was determined according to the Itaya-Ui method [K. Itaya, et al.: J. Lipid Research, Vol. 6, 18 (1965)], calculated by the following equation: [formula] b) Result
B.F.F.A. Levels are shown in Table II, together with + and - marks and the total of the three values for each compound.

| Structure (SMILES) | Percentage of Blood-Sugar-Level (B.S.L.), 1 hr after (blood-sugar; 10 mg/kg dose) | Percentage of Blood-Sugar-Level (B.S.L.), 3 hr after (blood-sugar; 10 mg/kg dose) | Percentage of Blood-Sugar-Level (B.S.L.), 5 hr after (blood-sugar; 10 mg/kg dose) | Percentage of Blood-Sugar-Level (B.S.L.), Total (blood-sugar; 10 mg/kg dose) | Percentage of Blood-Sugar-Level (B.S.L.), 1 hr after (blood-sugar; 100 mg/kg dose) | Percentage of Blood-Sugar-Level (B.S.L.), 3 hr after (blood-sugar; 100 mg/kg dose) | Percentage of Blood-Sugar-Level (B.S.L.), 5 hr after (blood-sugar; 100 mg/kg dose) | Percentage of Blood-Sugar-Level (B.S.L.), Total (blood-sugar; 100 mg/kg dose) | LD50 at 24 h (in vivo) | B.F.F.A. Level, 1 hr after (Blood Free-Fatty-Acid) | B.F.F.A. Level, 3 hr after (Blood Free-Fatty-Acid) | B.F.F.A. Level, 5 hr after (Blood Free-Fatty-Acid) | B.F.F.A. Level, Total (Blood Free-Fatty-Acid) |
| --- | --- | --- | --- | --- | --- | --- | --- | --- | --- | --- | --- | --- | --- |
| CCc1cc(C(=O)NC(=O)NC(C)C)no1 [Compound 1, N'-i-propyl-N-(5-ethyl-3-isoxazolylcarbonyl)urea] | -8% | +2% | +2% | -4% | -54% | -63% | -43% | -160% | – | – | – | – | – |
| Cc1cc(C(=O)NC(=O)N(C)C)no1 [Compound 2, N',N'-dimethyl-N-(5-methyl-3-isoxazolylcarbonyl)urea] | -45% | -59% | -29% | – | -33% | -59% | -59% | -151% | – | – | – | – | – |
| Cc1cc(C(=O)NC(=N)N)no1 [Compound 3, 1-(5-methyl-3-isoxazolylcarbonyl)guanidine] | -11% | -39% | -32% | -82% | -30% | -56% | -52% | -138% | 2000 to 3000 mg/kg | -70% | -15% | -8% | -93% |
| CNC(=O)N(C)C(=O)c1cc(C)on1 [Compound 4, N,N'-dimethyl-N-(5-methyl-3-isoxazolylcarbonyl)urea] | -15% | -36% | -20% | -71% | -22% | -51% | -59% | -132% | – | – | – | – | – |
| Cc1cc(C(=O)N(C)C(=O)N(C)C)no1 [Compound 5, N,N',N'-trimethyl-N-(5-methyl-3-isoxazolylcarbonyl)urea] | -19% | -39% | -39% | -97% | -24% | -40% | -40% | -104% | – | – | – | – | – |
| CCCCNC(=O)NS(=O)(=O)c1ccc(C)cc1 [Compound 6, Tolbutamide, reference compound] | – | – | – | – | -9% | -26% | -23% | -58% | – | -40% | -45% | 0% | -85% |
| Cc1cc(C(=O)NC(=O)NC2CCCCC2)no1 [N'-cyclohexyl-N-(5-methyl-3-isoxazolylcarbonyl)urea] | – | – | – | – | – | – | – | – | – | -27% | -34% | -23% | -84% |
| Cc1cc(C(=O)NC(=O)NC(C)C)no1 [N'-i-propyl-N-(5-methyl-3-isoxazolylcarbonyl)urea] | – | – | – | – | – | – | – | – | 7000 to 8000 mg/kg | -75% | -67% | -49% | -191% |
| CCCCNC(=O)NC(=O)c1cc(C)on1 [N'-n-butyl-N-(5-methyl-3-isoxazolylcarbonyl)urea] | – | – | – | – | – | – | – | – | – | -59% | -59% | -30% | -129% |
| Cc1cc(C(=O)NC(N)=S)no1 [N-(5-methyl-3-isoxazolylcarbonyl)thiourea] | – | – | – | – | – | – | – | – | – | -60% | -36% | +13% | -83% |
| Cc1cc(C(=O)NC(N)=O)no1 [N-(5-methyl-3-isoxazolylcarbonyl)urea] | – | – | – | – | – | – | – | – | > 10000 mg/kg | – | – | – | – |

Reference: US4014876A, “Isoxazole derivatives” (Shionogi & Co., Ltd., priority 1969, dated 1977)
